Test results as given in patent publication US20060057181A1, “Method for determining the gastric evacuation using a 13c-labelled test meal” (priority 2002, published 2006).

Assay: 13C-octanoic acid breath test of gastric emptying: 13CO2 excretion in exhaled respiratory air measured by IRMS after test meal
Protocol: The thus formed ^13CO2 is then measured in the exhaled respiratory air by means of IRMS. IRMS (isotope ratio mass spectrography) has in the meantime become the most sensitive and best method for determining ^13CO2 in the exhaled respiratory air.
Therefore, the sampling and optimum calculation take three to four hours. The interval for sampling is optimal at 15 min.
Further, the patient need not sit calmly between the measuring devices for radioactivity. Rather, it is sufficient if they blow samples of their respiratory air into collecting devices every 12 minutes. For example, the so-called vacutainerss are particularly suitable for this purpose. These samples of the exhaled respiratory air may then be measured and evaluated in a central laboratory with a correspondingly sensitive IRMS equipment.

maximum of 13CO2 excretion (normal gastric emptying (patient No. 1), free 13C-octanoic acid bound to egg yolk, oral test meal, exhaled air, IRMS): > 2.9 h
maximum of 13CO2 excretion (somewhat faster gastric emptying (patient No. 5)): > 2.9 h
maximum of 13CO2 excretion (very delayed gastric emptying (patient No. 4)): < 2.5 h
SMILES: CCCCCCC[13C](=O)O [^13C-octanoic acid]
